SMILES | melting point [°C]
COc1cc(C(=O)c2ncc3ccc(C(=O)O)cn23)ccc1N | 306
NS(=O)(=O)Oc1ccc2c(c1)S(=O)(=O)N=C2C1CCCCC1 | 170
NC(=O)C(CCC(=O)OCc1ccccc1)N1Cc2c(OCc3ccc(CN4CCOCC4)cc3)cccc2C1=O (stereo not given) | 141 to 143
CC(C)(CF)C(O)(Cn1ncnc1S)C(Cl)=CCl (stereo not given) | 162 to 164
CS(=O)(=O)c1ccc(-c2cnn(CC(F)(F)F)c(=O)c2NCCCO)cc1 | 152 to 154
Nc1c(N=O)c(=O)n(CC2CCCC2)c(=O)n1CC1CCCC1 | 254 to 255
Cc1nc2cc(F)ccc2c(=O)o1 | 159 to 160
NCc1ccc(O)cc1 | 104
OC1Cc2ccccc2C1N1CCCCC1 (stereo not given) | 82
CSc1ccc(C2=C(c3ccccc3)C(=O)OC2)cc1F | 159 to 160
Cn1c(C#N)ccc1-c1ccc2c(c1)C(C)(c1cccs1)OCC(=O)N2 (stereo not given) | 197 to 198
O=c1[nH]c(=O)n(C2CC(F)C(CO)O2)cc1Cl (stereo not given) | 183 to 184
CCCN(CCC)S(=O)(=O)c1cccc(C2(O)CCC(=O)N2C)c1 (stereo not given) | 58 to 60
Cc1cc(O)c(S(=O)Cc2ccc(Cl)cc2Cl)c(=O)o1 (stereo not given) | 144 to 146
CCCCOc1cc(C=CC(=O)N2CCN(c3ccc(NC(=N)c4cccs4)cc3)CC2)cc(OCCCC)c1O | 65 to 68
CCOc1cccc(NC(=O)Nc2ccc(N3CCN(C(=O)Nc4ccc(OCCO)cc4C(F)(F)F)CC3)cc2)c1 | 108 to 110
COC(=O)[C@@H]1CCCN1S(=O)(=O)c1ccc(Cl)c(COc2cccc3c(C)cc(C)nc23)c1OC | 66 to 70
O=C1CCCN1C(=O)c1cccnc1 | 98 to 100
O=c1nc(-c2ccccc2F)c2ccccc2[nH]1 | 281 to 285
NC1CCNC(c2cnccn2)C1 (stereo not given) | 158 to 160
CC(=O)NC1C(O)OC(CO)C(O)C1OC(C)C(=O)NC(C)C(=O)NC(CCC(=O)O)C(N)=O (stereo not given) | 150 to 151
CCOC(=O)NS(=O)(=O)c1c(Cl)c(C)nn1C | 106 to 109
CCOC(=O)c1nc(-c2cccc([N+](=O)[O-])c2)cs1 | 149 to 150
CCOC(=O)c1ccc(SC)cn1 | 44 to 46
COC(=O)C(C)Oc1ccc(Oc2cnc3cc(Cl)c(Cl)cc3n2)cc1 (stereo not given) | 100 to 105

SMILES | melting point [°C]
Cc1c(C(=O)Nc2ccc(OCC(C)(C)C)c(C#N)c2)cnn1-c1ccc(F)cc1 | 126 to 127
C=CC(C)(O)CN1CCC2(CC1)CSC1=C(O2)c2ccccc2C(=O)C1=O (stereo not given) | 74 to 77
CN(C(=O)c1cnc2c(C(F)(F)F)cccc2c1-c1ccccc1)c1ccccc1 | 188 to 190
Cc1ccccc1C(CCC(=O)O)Oc1cc(OCc2cccc(CCC(=O)O)c2)ccc1C#N (racemic) | 136 to 137
CCOP(=O)(CC(Nc1cccnc1)c1cc(C)c(O)c(OC)c1)OCC (stereo not given) | 156 to 158
O=C(O)C(=O)c1ccc(SCCOc2ccc3ccccc3c2)cc1 | 161 to 162
CN1CCC23c4c5ccc(O)c4OC2C(=O)CCC3(F)C1C5 (stereo not given) | 215 to 217
COC(=O)NCCOC(=O)COc1cc(Oc2ccc(C(F)(F)F)cc2Cl)ccc1[N+](=O)[O-] | 105 to 108
CC1(C)OC(=O)C(C)(N=Nc2ccc(F)cc2Br)C(=O)O1 | 92 to 93
COc1cc(NC(=O)OCCCN2CCC(c3nn(C)c4cc(F)ccc34)CC2)cc(OC)c1OC | 85 to 88
Cc1ccc(-c2cccnc2N2CCC(C(=O)O)CC2)cc1C(=O)NCC12CC3CC(CC(C3)C1)C2 | 60
Nc1nc(=O)n(C2CC(O)C(CO)O2)cc1F (stereo not given) | 199 to 201
O=C(NC1=NN(c2ccc(C(=O)C(F)(F)F)cc2)C(c2ccccc2)C1)C(F)(F)F (stereo not given) | 197 to 198
COc1cccc(C(=O)O)c1I | 142 to 146
CC(=O)OC1(Cc2ccncc2)C(=O)N(N2CCOCC2)c2ccccc21 (stereo not given) | 178 to 180
CC(=NOc1ncc(F)c(N)n1)c1ccccc1 | 163 to 165
Nc1n[nH]c(-c2ccccc2)c1CC(=O)O | 214 to 216
Fc1ccc(Oc2ccnc3cc(Cl)ccc23)cc1 | 89 to 91
O=C(NCCCn1cnc(-c2ccccc2)c1)c1ccc(Cl)cc1 | 103 to 105
O=C(O)C1CCc2c(c3ccccc3n2C(=O)c2ccc(-c3ccccc3)cc2)C1 (stereo not given) | 212 to 213
C#CCN1C(=O)c2cccc3cccc(c23)C1=O | 235 to 237
FC(F)(F)C(Cl)=NC(c1ccccc1)(c1ccccc1)c1ccccc1 | 144 to 145
CC(C)(C)NCC(O)c1cc(Cl)c(N)c(C#N)c1 (stereo not given) | 125 to 133
COC(=O)C(=Cc1cc(OC)cc(OC)c1)c1ccc(O)cc1 | 106 to 108
O=c1cc(NCc2ccccc2)c(-c2nc[nH]n2)nn1-c1ccccc1 | 192 to 193
